Assay: Km was determined

Row | Km [µM] | Structure (SMILES)
1 | 175 | CC(=O)CCCC[C@@H]1SCC2NC(=O)NC21 (some centres not stated)
2 | 750 | N[C@@H](Cc1ccccc1)C(=O)Nc1ccc([N+](=O)[O-])cc1
